Assay results: article PMC8398231 (Pharmaceutics, 2021)

Key:
PC-3 cells = test: Cellular efflux of internalized radioactivity from PC-3 cells; format: cell-based
Method: For in vitro experiments, PC-3 cells were cultured in DMEM/F12 and seeded in 6-well plates at a density of 10^6 cells per well 18 h before carrying out the experiments and incubated overnight with complete medium.
Three minutes before the end of the incubation time, internalization was stopped by removing medium and washing cells with ice-cold PBS. The membrane-bound fraction was removed by rinsing cells with 2 mL acetate buffer (pH = 5; 20 mM) for 2 min and cells were then rinsed ice-cold PBS. Next, 2 mL of complete medium was then added to each well, and PC-3 cells were incubated at 37 °C for 5, 15, 30 and 45 min. At each time point, efflux was stopped by removing medium and cells were rinsed twice with ice-cold PBS. Finally, the cells were treated with 1M NaOH and the radioactivity was measured using a gamma counter.

[1] = Lipophilicity, water-octanol partition/distribution coefficient method; format: physicochemical; details: 1-octanol/phosphate buffered saline; shake-flask 1-octanol/PBS pH 7.4 (500 µL each), 3.7 MBq, stirred 5 min at room temperature, centrifuged, gamma counter, decay-corrected; three experiments in triplicate, mean ± SD
Method: The lipophilicity of the [^68Ga]Ga-RM2 was assessed by the water-octanol partition/distribution coefficient method. In a centrifuge tube 500 µL of 1-octanol was added to 500 µL of phosphate buffered saline (pH 7.4) containing the radiolabeled peptide (3.7 MBq; ≈10 µL). After equilibrium, the solution was vigorously stirred for 5 min at room temperature and subsequently centrifuged (4000 rpm, 3 min) to yield two immiscible layers. Aliquots of 100 µL were taken from each layer and the radioactivity in the samples was determined by a gamma counter (Gamma Wizard2 Counter 2480; Perkin Elmer, Villebon sur Yvette, France; acquisition time of one minute, energy window centered on the peak of 511 keV). The Log D7.4 was determined by the Log ratio (cpm (counts per minute) organic phase/cpm aqueous phase). The cpm values were decay-corrected. Experiments were performed three times in triplicates.

PC-3 = details: other kit formulation without scavenger and bulking agent; cited from earlier work
Excerpt: Another kit formulation of RM2 has been developed but without a scavenger and a bulking agent for lyophilization. […] Therefore, our innovative formulation provides longer stability at higher temperature and higher uptake in GRP-R-expressing PC-3 cells.

[2] = Stability of radiolabeled kit in vehicle (radiochemical purity over time); format: physicochemical; details: final formulation (acetate buffer, PBS, 0.9% NaCl)
Method: For process validation, the [^68Ga]Ga-RM2 kits were subjected to full quality control. […] Molar activity was calculated after linear regression of the calibration curve with [^natGa]Ga-RM2 (Life Molecular Imaging). The pH was determined using a pH-meter. Volumetric activity was determined by dividing activity obtained by the final volume. The [^68Ga]Ga-RM2 was also subjected to endotoxin testing (Charles Rivers), sterility testing and radionuclidic purity and filter integrity tests. Results were then compared to the production capacity provided by the module route currently running in our NCT03604757 and NCT03606837 studies.
After optimization, ^68Ga radiolabeling of the RM2 kits was carried out in three consecutive batches, and they all complied with the requirements of the monograph of the European Pharmacopoeia (as described for [^68Ga]Ga-edotreotide) (Figure 4 and Table 1). The evolution of the radiochemical purity over time was also checked.

GRP-R = target: T1, GRP-R (Homo sapiens, UniProt P30550); test: Intracellular calcium mobilization assay in PC-3 cells; format: cell-based; details: fluo-8AM, 10^-11 M to 10^-5 M, room temperature, pH 7.4
T1 construct: higher uptake in GRP-R-expressing PC-3 cells; endogenous in cells; host or cells: PC-3 cells
T1 sequence (P30550 whole entry): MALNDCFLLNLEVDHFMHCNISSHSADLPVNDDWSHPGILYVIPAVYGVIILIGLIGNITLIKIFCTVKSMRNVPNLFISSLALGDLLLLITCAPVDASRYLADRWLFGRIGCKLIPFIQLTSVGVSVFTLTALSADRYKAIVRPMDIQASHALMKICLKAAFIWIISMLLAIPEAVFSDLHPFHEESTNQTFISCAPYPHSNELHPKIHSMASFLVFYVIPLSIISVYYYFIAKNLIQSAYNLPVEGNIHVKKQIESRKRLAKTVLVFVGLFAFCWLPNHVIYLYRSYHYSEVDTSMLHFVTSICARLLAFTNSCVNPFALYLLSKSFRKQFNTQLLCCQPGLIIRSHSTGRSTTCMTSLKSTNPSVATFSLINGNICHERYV
Method: For calcium imaging assays, PC-3 cells were cultured as previously described. The day before the experimentation, cells were grown on 15 mm Thermanox® glass slides (Thermofischer, Waltham, MA, USA,) in 6-wells plates at the density of 5.10^5 cells in 500 µL culture medium. Glass slides were individually loaded for 30 min in dark into 500 µL loading solution containing 10 µL fluo-8AM, 10 µL pluronic acid, 50 µL probenecid and 430 µL DMEM/F12 medium. […] A 10-min delay was applied to remove extracellular fluo-8AM and to enable fluo-8AM intracellular hydrolysis. Growing concentrations (10^−11 M to 10^−5 M) of [^natGa]Ga-RM2 were added via a rapid perfusion system.

Row | Molecule | Efflux of the internalized activity (PC-3 cells; 30 min internalization at 37 °C, acid wash, then 5 min at 37 °C in complete medium) [%] | Efflux (%) (PC-3 cells; 45 min post-internalization at 37 °C) | logD [1] | Specific uptake in PC-3 (% of cell-associated radioactivity) (PC-3) [%] | Stability in vehicle (radiochemical purity over time) [2] | Intracellular calcium mobilization (ΔF/F) (GRP-R)
1 | CC(C)C[C@H](NC(=O)C[C@H](O)[C@H](CC(C)C)NC(=O)[C@H](Cc1c[nH]cn1)NC(=O)CNC(=O)[C@@H](NC(=O)[C@H](C)NC(=O)[C@H](Cc1c[nH]c2ccccc12)NC(=O)[C@H](CCC(N)=O)NC(=O)[C@@H](Cc1ccccc1)NC(=O)CN1CCC(NC(=O)CN2CCN(CC(=O)O)CCN(CC(=O)O)CCN(CC(=O)O)CC2)CC1)C(C)C)C(N)=O [[^68Ga]Ga-RM2, metal not drawn] | 64.3 ± 6.5 | 70.8 ± 11.1 | -2.54 ± 0.04 | 5 | stable in vehicle up to 3 h | –
2 | bombesin | – | – | – | – | – | effectively induced calcium mobilization in a dose-dependent manner
